Laboratory results published in ChEMBL document CHEMBL1255322, “In vivo therapeutic effect of gatifloxacin on BALB/c mice infected with Nocardia brasiliensis” (Antimicrob Agents Chemother, 2008).
In brackets after ≈: the same amount, converted by molar mass. Activity calls are given as the source filed them. No cut-off for these calls is given here.

Key:
[1] = test system: Nocardia brasiliensis; experiment: Antimicrobial activity against Nocardia brasiliensis HUJEG-1 by broth macrodilution method; assay type: functional
[2] = test system: Nocardia brasiliensis; experiment: Antimicrobial activity against Nocardia brasiliensis HUJEG-1 infected in BALB/c mouse assessed as decrease in number of lesions on foot-pad at 100 mg/kg, sc TID for 4 weeks; assay type: functional, organism-based; parameters: dose 100 mg/kg
[3] = Cmax in BALB/c mouse serum at 100 mg/kg, sc TID for 4 weeks by HPLC method; assay type: ADME, organism-based; parameters: dose 100 mg/kg, route subcutaneous
[4] = Cmax in BALB/c mouse serum at 25 mg/kg, sc TID for 4 weeks by HPLC method; assay type: ADME, organism-based; parameters: dose 25 mg/kg, route subcutaneous
[5] = test system: Nocardia brasiliensis; experiment: Antimicrobial activity against Nocardia brasiliensis HUJEG-1 infected in BALB/c mouse assessed as decrease in number of lesions on foot-pad at 25 mg/kg, sc TID for 4 weeks; assay type: functional, organism-based; parameters: dose 25 mg/kg

SMILES	Activity [1]	MIC [1] [µg/mL]	further results
COc1c(N2C[C@@H]3CCCN[C@@H]3C2)c(F)cc2c(=O)c(C(=O)O)cn(C3CC3)c12	Active		
C[C@H]1NCc2cc(-c3ccc4c(=O)c(C(=O)O)cn(C5CC5)c4c3OC(F)F)ccc21	Active		
COc1c(N2CCNC(C)C2)c(F)cc2c(=O)c(C(=O)O)cn(C3CC3)c12 (stereo not drawn) [GATIFLOXACIN]		0.25 (≈ 0.666 µM)	Activity [2]: Active; Cmax [3]: 18000 ng/mL
CC(=O)NC[C@H]1CN(c2ccc(N3CCOCC3)c(F)c2)C(=O)O1 [LINEZOLID]		0.12 (≈ 0.356 µM)	Cmax [4]: 50000 ng/mL; Activity [5]: inactive
